Test system: corticospinal neurons (CSNs/CSMNs)
Experiment: Laser-capture microdissection and Illumina microarray gene expression in corticospinal neurons contralateral to stroke
Assay type: in vivo, rat
Protocol: In a separate group of animals (n=20), layer V pyramidal cells of the sensorimotor cortex were retrogradely labeled by injecting Alexa-Fluor-488-conjugated cholera toxin B subunit (CTB; 300 U/μl in sterile saline) into the cervical spinal cord. For this, animals were anesthetized with a combination of ketamine and Domitor (medetomidine) and a laminectomy was performed at the cervical level of the spinal cord (C2-C4). CTB was stereotaxically delivered into four sites lateral to the corticospinal tract. Injections (1.3 μl) were spaced 1 mm apart on the rostro-caudal axis, and were made 0.5 mm to the left and right of the midline. After allowing two weeks for transport of the tracer, we performed either sham surgery with no treatment (n=6) or stroke surgery combined with saline (n=3) or inosine (n=4) treatment as described above. Seven days later, animals were decapitated under transient gas anesthesia, brains were removed and rinsed in cold RPMI medium, and a tissue block containing the sensorimotor cortex was dissected and placed in OCT Tissue Tek Medium (Sakura Finetek USA Inc., CA) on dry ice within five minutes of death. Ten μm sections were cut onto precleaned Gold Seal RITE-ON glass slides (Gold Seal Prod-ucts, Portsmouth, N.H.), placed on dry ice, and rapidly stored at −80° C.
Slide-mounted sections were thawed and dehydrated in RNAse-free ethanol gradients and xylene. Retro-gradely labeled, fluorescent cortical pyramidal cells in the undamaged hemisphere were individually captured using the Arcturus VERITAS system. ≧500 cells were collected from each animal and stored in Arcturus extraction buffer at −80° C. Total RNA was extracted from cells using the Micro-to-Midi TotalRNA Purification System (Invitrogen, Carlsbad Calif.) and double-amplified using the TargetAmp 2-Round Aminoallyl-aRNA Amplification kit 1.0 (Epicentre, Madison, Wis.). Amplified RNA was checked for average fragment length using the Agilent RNA 6000 Nano LabChip kit (Agilent Technologies, Santa Clara, Calif.) and then biotinylated and hybridized (1 μg) on Illumina RatRef-12 Expression BeadChip arrays (Illumina, San Diego Calif.), querying the expression of >22,000 RefSeq-curated rat transcripts. Results were obtained from a total of 15 samples representing 6 untreated controls, 4 animals with stroke treated with saline and 5 animals with stroke treated with inosine. Slides were processed and scanned with Illumina BeadStation platform according to the manufacturer protocol.
Raw data was analyzed using Bioconductor packages (www.bioconductor.org, (Gentleman et al., 2004)). Low level quality-control analysis was performed using inter-array Pearson correlation and clustering based on variance. Two arrays (1 saline and 1 inosine-treated) were outliers and were excluded from the analysis. Data was normalized using quantile normalization, and analysis of differential expression was performed using a linear model fitting (LIMMA package, (Smyth, 2005). Differentially expressed genes were classified according to gene ontology using Bioconductor packages and online tools (DAVID, http://david.abcc.ncifcrf.gov/). Pathway analysis was carried out using Ingenuity Pathway Analysis (Ingenuity Systems, www.ingenuity.com).

In the case of `OC[C@H]1O[C@@H](n2cnc3c(O)ncnc32)[C@H](O)[C@@H]1O` [inosine], the “Signal Intensity, Sfrs10” value (ILMN_48507, inosine after stroke) is reported as 2745, the “Fold-Induction Stroke, ino vs. cntrl, Scarb2” value (ILMN_48587) is reported as 0.71 and the “Signal Intensity, Scarb2” value (ILMN_48587, inosine after stroke) is reported as 569. For the same molecule, the “Fold-Induction Stroke, ino vs. cntrl, Sec6l1” value (ILMN_48688) was 0.84, the “Signal Intensity, Sec6l1” value (ILMN_48688, inosine after stroke) was 587 and the “Fold-Induction Stroke, ino vs. cntrl, Ube4a” value (ILMN_49300) was 0.58. The “Signal Intensity, Ube4a” value (ILMN_49300, inosine after stroke) was 1509, the “Fold-Induction Stroke, ino vs. cntrl, LOC501195” value (ILMN_49366) was 0.77 and the “Signal Intensity, LOC501195” value (ILMN_49366, inosine after stroke) was 1460. The “Fold-Induction Stroke, ino vs. cntrl, Kcnc2” value (ILMN_49569) was 0.73, the “Signal Intensity, Kcnc2” value (ILMN_49569, inosine after stroke) was 4642 and the “Fold-Induction Stroke, ino vs. cntrl, Arfrp1” value (ILMN_49739) was 0.93. For the same molecule, the “Signal Intensity, Arfrp1” value (ILMN_49739, inosine after stroke) was 1014, the “Fold-Induction Stroke, ino vs. cntrl, Dmp1” value (ILMN_49819) was 0.38 and the “Signal Intensity, Dmp1” value (ILMN_49819, inosine after stroke) was 267. For the same molecule, the “Fold-Induction Stroke, ino vs. cntrl, Ralbp1” value (ILMN_49884) was 0.75, the “Signal Intensity, Ralbp1” value (ILMN_49884, inosine after stroke) was 1553 and the “Fold-Induction Stroke, ino vs. cntrl, Snx2” value (ILMN_50221) was 0.66. For the same molecule, the “Signal Intensity, Snx2” value (ILMN_50221, inosine after stroke) was 1681, the “Fold-Induction Stroke, ino vs. cntrl, Rpn2” value (ILMN_50467) was 0.71 and the “Signal Intensity, Rpn2” value (ILMN_50467, inosine after stroke) was 835. The “Fold-Induction Stroke, ino vs. cntrl, RAMP4” value (ILMN_50573) was 0.75, the “Signal Intensity, RAMP4” value (ILMN_50573, inosine after stroke) was 544 and the “Fold-Induction Stroke, ino vs. cntrl, Cdc37l” value (ILMN_50686) was 0.83. For the same molecule, the “Signal Intensity, Cdc37l” value (ILMN_50686, inosine after stroke) was 625, the “Fold-Induction Stroke, ino vs. cntrl, LOC498489” value (ILMN_50922) was 0.49 and the “Signal Intensity, LOC498489” value (ILMN_50922, inosine after stroke) was 603. The “Fold-Induction Stroke, ino vs. cntrl, Ube2m” value (ILMN_50967) was 0.59, the “Signal Intensity, Ube2m” value (ILMN_50967, inosine after stroke) was 332 and the “Fold-Induction Stroke, ino vs. cntrl, LOC499428” value (ILMN_51108) was 0.50. The “Signal Intensity, LOC499428” value (ILMN_51108, inosine after stroke) was 678, the “Fold-Induction, complement cascade gene C3” value (ILMN_51249, LCM-captured CSMNs contralateral a stroke) was 2.17 fold and the “Fold-induction CSMNs: LOC305633, (P) Antxr2 protein” value (ILMN_51277, over and above inosine's effect of decreasing stroke-induced changes) was 3.13 fold. The “Fold-Induction Stroke, ino vs. cntrl, Ik” value (ILMN_51588) was 0.83, the “Signal Intensity, Ik” value (ILMN_51588, inosine after stroke) was 417 and the “Fold-Induction Stroke, ino vs. cntrl, LOC499767” value (ILMN_51716) was 0.64. For the same molecule, the “Signal Intensity, LOC499767” value (ILMN_51716, inosine after stroke) was 1723, the “Fold-Induction Stroke, ino vs. cntrl, LOC497777” value (ILMN_51717) was 0.58 and the “Signal Intensity, LOC497777” value (ILMN_51717, inosine after stroke) was 577. The “Fold-Induction Stroke, ino vs. cntrl, Tspan3” value (ILMN_51868) was 0.47, the “Signal Intensity, Tspan3” value (ILMN_51868, inosine after stroke) was 3842 and the “Fold-Induction Stroke, ino vs. cntrl, LOC360807” value (ILMN_51947) was 0.50. The “Signal Intensity, LOC360807” value (ILMN_51947, inosine after stroke) was 689, the “Fold-Induction Stroke, ino vs. cntrl, LOC498931” value (ILMN_51968) was 0.54 and the “Signal Intensity, LOC498931” value (ILMN_51968, inosine after stroke) was 554. For the same molecule, the “Fold-Induction Stroke, ino vs. cntrl, LOC501619” value (ILMN_51972) was 0.59, the “Signal Intensity, LOC501619” value (ILMN_51972, inosine after stroke) was 416 and the “Fold-Induction Stroke, ino vs. cntrl, Scd2” value (ILMN_52257) was 0.42. For the same molecule, the “Signal Intensity, Scd2” value (ILMN_52257, inosine after stroke) was 3009, the “Fold-Induction Stroke, ino vs. cntrl, LOC317508” value (ILMN_52577) was 0.58 and the “Signal Intensity, LOC317508” value (ILMN_52577, inosine after stroke) was 493. For the same molecule, the “Fold-Induction Stroke, ino vs. cntrl, Nedd9” value (ILMN_52827) was 0.73, the “Signal Intensity, Nedd9” value (ILMN_52827, inosine after stroke) was 550 and the “Fold-Induction Stroke, ino vs. cntrl, Atp6v1h” value (ILMN_52968) was 0.62. For the same molecule, the “Signal Intensity, Atp6v1h” value (ILMN_52968, inosine after stroke) was 525, the “Fold-Induction Stroke, ino vs. cntrl, MGC94339” value (ILMN_52985) was 0.70 and the “Signal Intensity, MGC94339” value (ILMN_52985, inosine after stroke) was 547. For the same molecule, the “Fold-Induction Stroke, ino vs. cntrl, Ube2e3” value (ILMN_53046) was 0.61, the “Signal Intensity, Ube2e3” value (ILMN_53046, inosine after stroke) was 434 and the “Fold-Induction Stroke, ino vs. cntrl, Arpc3” value (ILMN_53076) was 0.68. The “Signal Intensity, Arpc3” value (ILMN_53076, inosine after stroke) was 423, the “Fold-induction CSMNs: Irf1” value (ILMN_53085, over and above inosine's effect of decreasing stroke-induced changes) was 1.83 fold and the “Fold-Induction Stroke, ino vs. cntrl, LOC309362” value (ILMN_53195) was 1.02. For the same molecule, the “Signal Intensity, LOC309362” value (ILMN_53195, inosine after stroke) was 498, the “Fold-Induction Stroke, ino vs. cntrl, Hat1” value (ILMN_53256) was 0.69 and the “Signal Intensity, Hat1” value (ILMN_53256, inosine after stroke) was 362. The “Fold-Induction Stroke, ino vs. cntrl, LOC499978” value (ILMN_53292) was 0.72, the “Signal Intensity, LOC499978” value (ILMN_53292, inosine after stroke) was 970 and the “Fold-induction CSMNs: LOC498335, (P) Small inducible cytokine B13 precursor (CXCL13)” value (ILMN_53325, over and above inosine's effect of decreasing stroke-induced changes) was 11.42 fold. For the same molecule, the “Fold-induction CSMNs: Mt1a (Metallothionein)” value (ILMN_53575, over and above inosine's effect of decreasing stroke-induced changes) was 2.69 fold, the “Fold-Induction Stroke, ino vs. cntrl, Cnbp1” value (ILMN_53694) was 0.76 and the “Signal Intensity, Cnbp1” value (ILMN_53694, inosine after stroke) was 4491. For the same molecule, the “Fold-Induction Stroke, ino vs. cntrl, MGC94053” value (ILMN_53763) was 0.59.

Reference: patent publication US8912144B2, “Method for treating stroke via administration of NEP1-40 and inosine” (Children's Medical Center Corporation, priority 2003, dated 2014)
